Experimental data reported in patent US10426755B2, “Methods for inhibiting cancer cells” (Chang Gung Memorial Hospital, Chiayi, priority 2015, dated 2019).
“Also recorded” adds a separate entry of the source.

Tests used:
Type in all cases: cell-based
[1] = test system: γ-H2AX, phosphorylated-ATM, phosphorylated-p53, PUMA, BAX, caspase-3, caspase-9 and PARP in LNCaP and DU145 prostate cancer cells; test: Western blot of cell damage and cell death proteins, prostate cancer cells; conditions: various concentrations of DT, 6 to 24 hours, vs control vehicle; dose and time dependent; FIG. 9 (a)-(g)
Description: An in vitro evaluation on the damage effect of DT on cancer cells was performed, using prostate cancer cells (metastatic LNCaP and metastatic DU145, hormone therapy resistant and metastatic PC3 and 22RV1) and lung cancer cells (A549 and chemotherapy-resistant/metastatic H460).
Cancer cells were treated with a control vehicle, dihydrotestosterone (DHT), and various concentrations of DT between 6 to 24 hours. Cellular extracts of treated cancer cells were analyzed using Western Blot.

[2] = test system: prostate cancer cells (hormone therapy-resistant PC3, DU145 and LNCaP); test: Annexin V/PI flow cytometry apoptosis/necrosis, prostate cancer cells; conditions: 10 or 20 μM DT, 24-48 hours, vs PBS and DMSO vehicle (CT); time dependent; FIG. 6
Description: The effect of DT on metastatic prostate cancer cells (hormone therapy-resistant PC3, DU145 and LNCaP); lung cancer cells (A549 and chemotherapy-resistant/metastatic H460); and breast cancer cells (MCF-7, tamoxifen-resistant MCF7 and MDA MB-231) was assessed.
1×10^6 Cancer cells were seeded in a 100-mm plate and cultured overnight. The cancer cells were treated with phosphate buffered saline (PBS), a Dimethyl sulfoxide (DMSO) vehicle (CT), 10 or 20 μM of DT for 24-48 hours, then collected and washed with cold PBS. The supernatant was removed by centrifugation and resuspended in FITC Annexin V binding buffer and Propidium iodide (PI) (Annexin V-FITC Apoptosis Detection Kit, commercially available from Strong Biotech Corporation, Taiwan). The suspended cancer cells were stained at room temperature, in the dark for 15 min and analyzed by the BD FACSCanto™ flow cytometry (Becton Dickinson, USA). The amount of early apoptosis, late apoptosis, and necrosis was measured as the percentage of annexin-V positive/PI negative (Q4 in the FACS images), annexin-V positive/PI positive (Q2 in the FACS images), and annexin-V negative/PI positive cells (Q1 in the FACS images), respectively. Normal cells are in […] of the FACS images.

[3] = test system: ARK2 endometrial cancer cells; test: XTT proliferation assay, ARK2; conditions: 5, 10 and 20 μM DT, 1-2 days, FIG. 4
Description: The prostate cancer cells were plated at a density of 10^3 or 3×10^3 per well, in a 96-well plate, in a medium containing 10% Fetal bovine serum (FBS) (Gibco®, commercially available from Life Technologies, USA). Once the prostate cancer cells were attached to the culture dish, the 10% FBS medium was replaced with a second 10% FBS medium and each of the prostate cancer cell line was treated with 1, 5, and 10 μM of DT respectively for 1-2 days. The absorbance was measured using XTT assay kit (commercially available from Roche, Switzerland) at 492 nm using an ELISA reader (Bio-Rad Laboratories, USA).
An in vitro evaluation of the effect of DT on endometrial cancer cells was performed. The endometrial cancer cell lines, ARK1 and ARK2, were provided by Dr. T H Wang at Chang Gung Meorial Hospital, Linkou, Taiwan)
The endometrial cancer cells were cultured and plated according to the steps in Example 1 and each of the endometrial cancer cell line was treated with 0 (control), 5, 10 and 20 μM of DT, respectively for 1-2 days. The absorbance was measured using XTT assay kit at 492 nm using an ELISA reader.

[4] = test system: colorectal cancer cells (chemotherapy resistant HCT116); test: Cell invasion assay (transwell, Matrigel), colorectal cancer cells; conditions: 5 or 10 μM DT, 3 days, vs control vehicle; FIG. 13 (a)
Description: (§1) An in vitro evaluation of the effect of DT on lung cancer cells (A549 and chemotherapy resistant/metastatic H460), prostate cancer cells (metastatic DU145) and colorectal cancer cells (chemotherapy resistant HCT116) invasion and migration was performed, using cell invasion assay and cell migration assay.
(§2) Cell Invasion Assay: cells of interest were treated with a control vehicle, 5 or 10 μM of DT and incubated for 3 days. 1×10^5 cells were placed into the upper chamber of transwell plates (8 μm) with membranes pre-coated with 20% Matrigel and the bottom chamber contained 600 μL media supplemented with 10% fetal bovine serum (FBS). The cells migrated to the bottom of the chamber were fixed, stained and counted.

[5] = test system: CCL2 in metastatic DU145 prostate cancer cells; test: CCL2 ELISA of culture medium, DU145; conditions: 5 or 10 μM DT, 24 hours, vs DMSO, FIG. 14 (c)
Description: (§3) It has been reported that increased CCL2 expression enhances cancer cell metastasis via macrophage recruitment. The effect of DT on CCL2 expression in RAW264.7 macrophages, THP1 monocytes and prostate cancer cells (metastatic DU145 and hormone therapy resistant and metastatic PC3) was examined by treating the cells with DMSO (control), 5 or 10 μM DT for 24 hours.
(§4) The culture medium was collected and the concentration of CCL2 was measured using ELISA assay.

[6] = test system: lung cancer cells (A549 and chemotherapy resistant/metastatic H460); test: Cell invasion assay (transwell, Matrigel), lung cancer cells; conditions: 5 or 10 μM DT, 3 days, vs control vehicle; FIG. 11
Description: as §1, §2

[7] = test system: CCL2 in RAW 264.7 cells/DU145 co-culture; test: CCL2 ELISA, RAW 264.7/DU145 co-culture; conditions: DT-treated macrophage/DU145 co-culture medium; 5 or 10 μM DT, 24 hours; FIG. 15 (c)
Description: As illustrated in Example 10, the production of CCL2 was inhibited by DT in both prostate cancer cells and macrophage, the effect of DT on monocyte/cancer cell co-culture and macrophage/cancer cell co-culture was examined using the invasion assay described in Example 9. • (a) THP1 monocytes, Raw264.7 macrophage, monocyte/prostate cancer co-culture and macrophage/prostate cancer co-culture were treated with a vehicle (DMSO), 5 or 10 μM DT for 24 hours, the cultured medium was collected and placed into the lower chamber of a transwell plate. • (b) Prostate cancer cells (PC3, DU145 and 22RV1) were placed in the cell invasion assay). The level of CCL2 in the invasion assay was measured by ELIZA method.

[8] = test system: CCL2 in RAW264.7 macrophages; test: CCL2 ELISA of culture medium, RAW264.7 macrophages; conditions: 5 or 10 μM DT, 24 hours, vs DMSO, FIG. 14 (a)
Description: as §3, §4

[9] = test system: colorectal cancer cells (chemotherapy resistant HCT116); test: Cell migration (wound-healing) assay, colorectal cancer cells; conditions: DT vs control vehicle, 24 h, dose dependent; FIG. 13 (b)
Description: as §1
Cell Migration Assay: In vitro wound-healing assay was used to assess cell motility in two dimensions. Cancer cells were plated overnight to achieve a subconfluent cell layer in 24-well plates. A scratch was made on the cell layer with a micropipette tip, and cultures were washed twice with serum-free medium to remove floating cells. Cancer cells were incubated in a culture medium containing DT or the control vehicle. Wound healing was visualized by comparing photographs taken at the time of adding the DT/control vehicle and 24 h later. Three experiments were done in quadruplicates.

Cc1cccc2c3c(ccc12)C(=O)C1=C(OCC1C)C3=O (centres unmarked) [DT, dihydroisotanshinone I]
DNA damage response proteins (γ-H2AX and phosphorylated-ATM), prostate cancer cells [1]: increased
cell cycle regulatory protein (phosphorylated-p53), prostate cancer cells [1]: increased
cell program death proteins (PUMA, BAX, caspase-3, caspase-9 and PARP), prostate cancer cells [1]: increased
early apoptosis, late apoptosis and necrosis, prostate cancer cells [2]: more early apoptosis, late apoptosis and necrosis; also recorded: induced prostate cancer cell apoptosis/necrosis
inhibition of ARK2 endometrial cancer cells [3]: effective in inhibiting ARK1 and ARK2 endometrial cancer cells
colorectal cancer cell motility (invasion assay) [4]: reduced the motility of chemotherapy resistant colorectal cancer cells; also recorded: reduced the motility of colon cancer cells
production of CCL2 in metastatic DU145 prostate cancer cells [5]: effectively inhibit the production of CCL2
lung cancer cell motility (invasion assay) [6]: reduced metastatic lung cancer cell motility; also recorded: reduced the motility of lung cancer cells
concentration of CCL2 [7]: significantly reduced
production of CCL2 in macrophages [8]: effectively inhibit the production of CCL2
colorectal cancer cell migration into the wounded area [9]: reduced chemotherapy resistant colorectal cancer cell migration; also recorded: reduced colon cancer cell migration into the wounded area
